In patent US5573772A, “Methods for protecting tissues and organs from ischemic damage” (priority 1994, dated 1996):

Key:
rabbit heart = assay: Infarct size in isolated rabbit hearts, A3-receptor mediation of preconditioning, Example 3; conditions: BW A1433 200 nM + PC
Protocol: New Zealand white rabbits of either sex, between 1.4-2.4 kg, were anesthetized with intravenous sodium pentobarbital (30 mg/kg). The neck was opened and a tracheotomy was performed. The rabbits were ventilated with 100% oxygen via a positive pressure respirator (MD industries, Mobile, Ala.). Ventilation rate was 30-35 breaths per minute, and tidal volume was approximately 15 ml. A left thoracotomy was performed in the fourth intercostal space and pericardium was opened to expose the heart. A 2-0 silk suture with an RB taper needle was passed around a branch of the left coronary artery, and the end of the silk were threaded through a small vinyl tube to form a snare. The heads were quickly excised and mounted on a Langendorff apparatus and perfused at constant pressure with Krebs buffer containing (in mM) 118.5 NaCl, 4.7 KCl, 1.2 MgSO4, 1.2 K2 PO4, 24.3 NaHCO3, 2.5 CaCl2 and 10 glucose. […] The temperature of the perfusate was maintained at 37° C. The perfusion pressure was kept at 75 mm Hg. Pacing electrodes were placed on the right atrium and all hearts were paced at 200 beats/minute with pulses of 5 volts and 4 msec duration to keep the heart rate constant. A fluid-filled latex balloon connected to a transducer via PE240 tubing was inserted into the left ventricle. Balloon volume was adjusted to set the left ventricular diastolic pressure at 10 mm Hg at the beginning of the experiment. Total coronary artery flow was measured by timed collection of buffer from the chamber into a graduated cylinder. Regional ischemia was effected by pulling the snare tight and clamping the tube with a hemostat. Global ischemia was performed by clamping the inflow tubing of the Langendorff apparatus. Reperfusion was achieved by releasing the restriction. All hearts were allowed to equilibrate for 20 minutes before the experiments were started. Heart rate (HR), coronary flow (CF) and left ventricular developed pressure (LVDP) were recorded at the point just before and at the end of each treatment with the pacing momentarily turned off. […] The hearts were removed from the Langendorff apparatus, weighed and then frozen. The hearts were cut into 2 mm transverse slices. The slices were thawed and incubated in 1% triphenyl tetrazolium chloride (TTC) in pH 7.4 buffer for 20 minutes at 37° C. TTC reacts with NADH and dehydrogenase enzymes and stains all tissue still having them to a deep red color. […] After staining, the area of infarcted tissue (TTC negative tissue) and the risk zone (area lacking fluorescence under ultraviolet light) in each slice were traced. The area of infarct and risk zone were determined by planimetry of the tracing. The volume of infarcted myocardium and myocardium at risk was then calculated by multiplying the planimetered areas by the slice thickness. The methods utilized in this example are identical to those described in Example 1. All hearts received 30 minutes of regional ischemia as described in Example 1. The control group (n=8) hearts received only 30 minutes of ischemia. Preconditioned (PC) hearts (n=10) received 5 minutes of global ischemia and 10 minutes of reperfusion prior to the regional ischemia. Adenosine (ADO) treated hearts (n=6) received 10 μM adenosine for 5 minutes prior to regional ischemia. APNEA treated hearts (n=6) received 65 μM APNEA for 5 minutes prior to regional ischemia. In groups receiving the nonselective adenosine blocker, 8-SPT, the blocker was included in the perfusate for 15 minutes at 100 μM starting 5 minutes before the exposure of ADO (ADO-SPT group, n=6), or APNEA (APNEA-SPT group, n=6 ) or 5 minutes before and after 5 minutes of preconditioning ischemia (PC-SPT group, n=5). […] For the PC-BW group (n=5), the A3-receptor antagonist, BW A1433, [Linden J, et al., Molecular Pharmacology 44:524-532 (1993)], was administered at a dose of 200 nM in the perfusate for 5 minutes before and 5 minutes after PC ischemia.

heart = conditions: intercoronarily infused before an ischemic insult; cited from earlier work
[1] = system: human A3 adenosine receptor; assay: A3 adenosine receptor binding assay, [125I]-ABA displacement on CHO cell membranes, Example 5
Protocol: Chinese hamster ovary (CHO) cells, obtained from ATCC, expressing the cloned human A3 adenosine receptor [for example, 5 L cells or a mutagenized A3 adenosine receptor (e.g., A3K2)] were grown under standard cell culture conditions and harvested by mechanical agitation in cell culture medium. All further procedures were carried out at 4° C. The cells were disrupted using a Polytron and the resulting cell membranes collected by centrifugation at 50,000 g for 20 minutes. The pellet was suspended in 10 mM Tris-HCl buffer, pH 7.4, (10^6 cells/mL) using the Polytron and centrifuged at 50,000 g for 20 minutes. […]
For the binding assay, 50 μg of membrane protein were incubated with 0.4 nM [^125 l]-aminobenzyladenosine (ABA, custom synthesized by DuPont:NEN; specific activity=2200 Ci/mmol) in 50 mM Tris-HCl buffer, pH 7.4, containing 5 mM MgCl2 and 1 unit/mL adenosine deaminase in a total volume of 100 μL for 2 hours at room temperature. Membranes containing bound radioactivity were collected on Whatman GF/B filters using a Brandel Cell Harvester and washed 3 times with ice-cold 50 mM Tris-HCl buffer, pH 7.4. Radioactivity was quantified using a Beckman gamma counter. […] The specific binding was then calculated by subtracting this non-specific binding value from the total binding.

[2] = system: A3 adenosine receptor (R226); conditions: cited from earlier work
intact rabbit = assay: Bradycardia and mean arterial pressure in the anesthetized rabbit, Example 2; conditions: I-APNEA 0.25 mg/kg
[3] = system: intact, blood perfused rabbit heart; assay: Infarct size in the intact anesthetized rabbit, 30 min ischemia and reperfusion, Example 2; conditions: I-APNEA 0.25 mg/kg iv; control 52±4.3%, PC 9±4.1%
Protocol: In this study, the effect of the adenosine receptor agonist, I-APNEA, on infarct size in the anesthetized rabbit was compared to the protection observed with ischemic preconditioning (PC).
New Zealand White rabbits (1.5-2.5 kg) were anaesthetized with pentobarbital sodium (40 mg/kg) administered via a catheter in a marginal ear vein. The animals were intubated with a pediatric cuffed endotracheal tube and ventilated with room air using a positive pressure respirator (Harvard Apparatus, Natick, Mass.). The heart was exposed in situ via an incision between the left 4th and 5th ribs, and a branch of the left coronary artery was isolated, using a 3-0 silk suture on RB-taper needle, for later ligation to induce 30 minutes of ischemia followed by 180 minutes of reperfusion. A catheter inserted into a femoral vein was used for administration of fluids and drugs. Infarct size was measured using the method described in the section entitled "Measurement of Infarct Size and Risk Area" in Example 1.
All animals received 30 minutes of regional ischemia, induced by tightening the suture placed around the coronary artery. Following the 30 minutes of ischemia, the suture was loosened, and reperfusion was allowed for the ensuing 180 minutes. Control animals received only the 30 minutes of ischemia and 180 minutes of reperfusion (n=9). Ischemic preconditioning (PC) was induced by 5 minutes of occlusion of the coronary artery followed by 10 minutes of reperfusion before the 30 minutes of occlusion (n=7). In a separate group of rabbits, I-APNEA was delivered intravenously as a slow bolus injection (0.25 mg/kg), beginning 15 minutes prior to the 30 minutes occlusion (n=8). In two additional groups of rabbits, the effects of the A1-selective adenosine receptor blocker, DPCPX, were tested against the effects of PC (n=6) and I-APNEA (n=8). […] At the end of 120 minutes of reperfusion, all animals were killed by an overdose of pentobarbital, and risk area and infarct size were measured.

With `CCCn1c(=O)c2[nH]c(-c3ccc(/C=C/C(=O)O)cc3)nc2n(CCC)c1=O` [BW A1433] the “Infarct size (of the risk area)” value (rabbit heart) was 26.2±3.2%.

In the case of `OC[C@H]1O[C@@H](n2cnc3c(NC4CCCC4)nc(Cl)nc32)[C@H](O)[C@@H]1O` [CCPA, 2-chloro-N^6-cyclopentyladenosine], the Ischemic preconditioning effects (heart) is listed as “beneficial ischemic preconditioning effects”.

Work on `Nc1ccc(CNc2ncnc3c2ncn3[C@@H]2O[C@H](CO)[C@@H](O)[C@H]2O)cc1I` [I-ABA, N^6-(4-amino-3-iodobenzyl)adenosine] yielded an IC50 ([1]; A3K2 line cell membranes, 0.4 nM [125I]-ABA, read-out: IC50, displacement of [125I]ABA specific binding) of 2 nM.

In the case of `Nc1ccc(CCNc2ncnc3c2ncn3[C@@H]2O[C@H](CO)[C@@H](O)[C@H]2O)cc1I` [I-APNEA, N^6-2-(4-amino-3-iodophenyl)ethyladenosine], the “Binding to R226” value [2] is listed as “bind”, the Mean arterial pressure (intact rabbit) is listed as “fall in mean arterial pressure” and the Infarct size [3] is listed as 17±3.8%.

In the case of `CCNC(=O)[C@H]1O[C@@H](n2cnc3c(N)ncnc32)[C@H](O)[C@@H]1O` [NECA, 5'-N-ethylcarboxamidoadenosine], the “Binding to R226” value [2] is listed as “bind”.

For `C[C@H](Cc1ccccc1)Nc1ncnc2c1ncn2[C@@H]1O[C@H](CO)[C@@H](O)[C@H]1O` [R-PIA, (R)-N-(2-phenyl-1-methylethyl)adenosine], the Ischemic preconditioning effects (heart) is listed as “beneficial ischemic preconditioning effects”.

In the case of `CCCn1c(=O)c2[nH]c(-c3ccc(OCC(=O)NCCN)cc3)nc2n(CCC)c1=O` [XAC], the “Binding to R226” value [2] is given as “not to bind”.

With `Nc1ccc(CNc2ncnc3c2ncn3[C@@H]2O[C@H](CO)[C@@H](O)[C@H]2O)cc1[125I]` [[^125 l]ABA, [^125 l]-aminobenzyladenosine] the “Binding to human A3 receptors, affinity” value ([1]; radiolabel, A3K2 cells) was “high affinity”.
